# Results from PMC6630718, “Discovery of Novel UV-Filters with Favorable Safety Profiles in the 5-Arylideneimidazolidine-2,4-dione Derivatives Group” (Molecules, 2019).
# What was measured:
# [1] = In vitro photoprotection study of 2% (w/w) macrogol formulations on PMMA plates; details: for UVA PF / UVA/UVB Ratio / λc (critical wavelength): 2% (w/w) macrogol formulation F1 (Triacetin 4.8%); for SPFin vitro: 2% (w/w) macrogol formulation F1 (Tween 20, PEG-400, PEG-1500, Triacetin 4.8%)
# From the text: The composition of formulations and concentration of tested compounds were based on their limited solubility. N-monosubstituted compounds 2a–2e were insoluble at desirable concentrations in the typical solvents used in cosmetic formulations such as alcohols, triacetin, surfactants, and co-surfactants. To dissolve compounds 2a and 2b before incorporation to the formulation DMSO: Tween 20 (1:9 w/w) was used, for less soluble 2c–2e it was necessary to use DMSO alone as solvent. […] Thus the detailed composition of the formulations is as follows: F1–Tween 20 43.2%, PEG-400 25%, PEG-1500 25%, Triacetin 4.8%, tested compound 2%; F2–Tween 20 43.2%, PEG-400 25%, PEG-1500 25%, DMSO 4.8%, tested compound 2%; F3–PEG-400 25%, PEG-1500 25%, DMSO 48%, tested compound 2%. Considering the disadvantages of currently reported macrogol formulations and the low concentration achieved for the tested compounds (2%), we plan to work on cosmetic emulsions containing the most promising derivatives at higher concentrations as well as required excipients including preservatives, antioxidants, etc. This research will be carried out in the near future.
# Tested compounds and commercial UV filters as reference standards were incorporated to a neutral macrogel formulation in the concentration of 2%. Prior to the incorporation, compounds 3a–3e and 4f–4h and reference UV-filters were dissolved in a triacetin:Tween 20 (1:9) solvent system. For compounds 2a–2e it was necessary to use DMSO. The final composition of the macrogol formulations is presented in the photoprotective activity section.
# In vitro photoprotection study was performed according to EN ISO 24443:2012 [71] with slight modifications. Formulation with tested compound (32.5 mg) was applied on a polymethylmethacrylate plate (PMMA) with the application area 25 cm^2 and 5 µm roughness value to simulate the skin surface (Schonberg GmbH, Hamburg, Germany). As a reference a PMMA plate treated with approximately 15 µL of glycerin was used. Measurements were carried out by reflectance spectrophotometry with SPF-290AS Analyser (Solar Light Company, Glenside, PA, USA) equipped with integrating sphere controlled by WinSPF version X.X. software. For each sample two plates were prepared, absorbance measures were performed on 6 different positions of the plate from 290 to 400 nm with 1 nm steps. The results were expressed as an average of data from 12 scans.
# [2] = Ultraviolet spectroscopy in methanol solutions; format: physicochemical; details: for Absorption Range: scan range 290–400 nm
# Protocol: Spectra with a scan range of 290–400 nm were recorded in 50 or 25 μM methanol solutions, in 1 cm path length, 1.5 mL quartz cuvettes on a U-2800 double beam spectrophotometer (Hitachi, Tokyo, Japan) controlled by UV Solution version 2.2 software. The molar extinction coefficient at maximum absorption (εmax) of tested compounds was determined in methanol as the slope of the linear regression of absorbance vs. concentration of tested compound (from 10 to 50 μM or 2.5 to 30 μM).
# [3] = Photostability in methanol solutions (solar light simulator); format: physicochemical; design: λmax pre-irradiation: unit not given beside the values; details: methanol solution; for % of initial AUC post-irradiation / λmax post-irradiation: 1h irradiation at 500 W/m2
# Protocol: (§1) The photostability evaluation of compounds was performed both in methanol solutions and in macrogol formulations. Irradiation of samples according to previous studies was conducted for 1 h at 500 W/m^2 (cumulative dose of ultraviolet radiation 218 kJ/m^2) with solar light simulator (Suntest CPS+, Atlas, Linsengericht, Germany) equipped with an optical filter cutting off wavelengths shorter than 290 nm and IR-block filter to neutralize thermal effects. The UV absorption spectrum of the samples were analysed post-irradiation and compared with pre-irradiation results. UPLC-MS/MS analyses were also performed.
# (§2) Methanol solutions were tested at concentration 25 or 50 µM in quartz cuvettes with the PTFE stopper to prevent evaporation or leaking of the solvent. Macrogol formulations (2% w/w) were tested on PMMA plates (1.3 mg/cm^2). After post-irradiation measure of UV absorption, exposed and unexposed plates were washed with 5 mL of methanol, then mixtures were filtered and analysed by UPLC-MS/MS. All analyses were performed in duplicates.
# [4] = Photostability in macrogol formulations on PMMA plates (solar light simulator); format: physicochemical; details: after 1 h irradiation at 500 W/m^2, formulation F1
# Protocol: After irradiation of thin layer of formulations applied on PMMA plates, their photoprotective parameters were determined and compared with the pre-irradiation results. The study gives an overview on functional photostability of the tested compounds. It is an important test, because the photostability of some compounds in low concentrated solutions may meaningfully differ from results obtained for higher concentrations used in sunscreen products. […] In the present study both UVB and UVA-absorbers were tested, so the changes in SPFin vitro, UVA PF and AUC after irradiation are taken into account as a measure of photostability.
# as §1, §2
# [5] = Ames MPF Penta 2 microplate mutagenicity assay, TA100; format: cell-based; details: Salmonella typhimurium; TA100, +S9, 1.25 µg/mL; read-out: FIB (fold induction over baseline), positive control
# Protocol: (§3) The assay is a liquid microplate modification of the traditional Salmonella test. During the procedure, bacteria are exposed to different concentrations of a test compound for 90 min in a medium containing sufficient histidine (S. typhimurium) or tryptophan (E. coli) to support cell divisions. Then, the cultures are diluted in pH indicator medium lacking histidine or tryptophan and aliquoted into 48 wells of a 384-well plate. Within 48 hours, cells that have undergone reversion to amino acid prototrophy will grow into colonies. Bacterial metabolism reduces pH of the medium, changing the color of that well from purple to yellow (https://www.xenometrix.ch).
# (§4) The following strains were used in the study: S. typhimurium TA98, TA100, TA1535, TA1537 and E. coli wp2 uvrA[pKM101]. TA100, TA1535 and E. coli strains are used for the detection of base substitution mutations, whereas TA98 and TA1537 are utilized for the detection of frameshift mutations. S. typhimurium strains have GC base pairs, whereas E. coli strain has AT base pair at their primary reversion site and detect certain oxidizing mutagens, cross-linking agents and hydrazines.
# (§5) The test procedure provided by Xenometrix (https://www.xenometrix.ch) and described earlier was followed. Briefly, the bacterial strains were grown overnight in exposure medium and exposed to test compounds 4g and 3b in 24-well plates for 90 min at 37 °C with agitation in the absence (–S9) or presence (+S9) of 4.5% phenobarbital/ β-naphthoflavone-induced rat liver S9. Compounds 4g and 3b were dissolved in DMSO and tested at final concentrations of 0.1, 0.2 and 0.5 mM. After the preincubation, the cultures were diluted in the indicator medium and the contents of each 24-well culture were distributed into 48 wells on a 384-well plate and incubated further for 48 h at 37 °C without agitation. After the exposure, the number of wells containing bacteria was scored by eye for yellow wells. Positive and negative controls were included in the assay, and all doses were done in triplicate.
# (§6) Pure DMSO was used as the negative control.
# (§7) The fold increase of revertants relative to the solvent control was determined by dividing the mean number of positive wells at each dose by the solvent control at baseline. The solvent control at baseline was defined as the mean number of positive wells in the solvent control plus one standard deviation (SD). When an increase of more than 2-fold relative to the baseline at more than one dose with a dose–response is observed the sample is classified as positive, whereas when no response >2 times the baseline and no dose–response is stated the sample is negative.
# [6] = Ames MPF Penta 2 microplate mutagenicity assay, TA98; format: cell-based; details: Salmonella typhimurium, read-out: FIB (fold induction over baseline), positive control
# Protocol: as §3, §4, §5, §6, §7
# in vitro = details: Salmonella typhimurium
# Protocol: as §3, §4, §5, §6, §7
# [7] = In vitro stability in mouse liver microsomes; format: in vitro ADME; details: mouse liver microsomes
# Protocol: Mouse liver microsomes (MLMs) were used to investigate the phase I metabolism of selected compounds (2c, 2d, 3b, 4g, 5a) and the reference substance BP-2. Samples composed of test compound (20 µM), MLMs (0.8 mg/mL) and potassium phosphate buffer (100 mM, pH 7.4) were preincubated prior to addition of NADPH-regenerating system. NADPH-regenerating system contained NADP, glucose-6-phosphate, glucose-6-phosphate dehydrogenase and potassium phosphate buffer (100 mM, pH 7.4). Control incubations were performed in the absence of the NADPH-regenerating system and in case of esters (2c, 2d, 3b and 4g) without the mouse liver microsomes solution to determine spontaneous hydrolysis. Incubations were conducted at 37 °C for at least 15 min up to 60 min. The reactions were stopped by the addition of 250 μL ice-cold methanol containing internal standard PTX (20 μM). The mixture was then centrifuged. Supernatant analysis was performed using UPLC/MS (Waters Corporation). The assays were repeated two times. The in vitro half times (t1/2) for test compounds were determined from the slope of the linear regression of ln % parent compound remaining versus incubation time. The calculated t1/2 was incorporated into the following equation to obtain intrinsic clearance: (Clint) = (volume of incubation [µL]/ protein in the incubation [mg]) × 0.693 / t1/2 [74].
# [8] = Ames MPF Penta 2 microplate mutagenicity assay, TA1535; details: Salmonella typhimurium, FIB (fold induction over baseline), positive control, TA1535, –S9, 100 µg/mL
# Protocol: as §3, §4, §5, §6, §7
structure (smiles),measurement,setting,value
"CCOC(=O)CN1C(=O)/C(=C/c2ccc(OC)c(OC)c2)N(CC(=O)OCC)C1=O [Compound 3e, Diethyl 2,2′-((Z)-4-(3,4-dimethoxybenzylidene)-2,5-dioxoimidazolidine-1,3-diyl)diacetate]",UVA PF,[1],2.17 ± 0.11
same,UVA/UVB Ratio,[1],1.43 ± 0.02
same,λc (critical wavelength),[1],382 nm
same,SPFin vitro,[1],1.87 ± 0.08
same,εmax,[2],14200 M⁻¹ cm⁻¹
same,λmax,[2],329 nm
same,Absorption Range,[2],290–380 nm
same,λmax pre-irradiation,[3],329
same,% of initial AUC post-irradiation,[3],129.32%
same,λmax post-irradiation,[3],340
same,% of Initial AUC,[4],79.59%
same,% of Initial SPFin vitro,[4],81.28%
same,% of Initial UVA PF,[4],87.10%
same,melting point,,80 to 82 °C
"Nc1ccc2cc3ccccc3cc2c1 [Compound 2-AA, 2-aminoanthracene, reference compound]","fold induction at 90 min, 1.25 µg/mL",[5],3.1
same,"fold induction at 90 min, 0.5 µg/mL","[6]; TA98, +S9, 0.5 µg/mL",12.6
"CCCCC(CC)COC(=O)C(C#N)=C(c1ccccc1)c1ccccc1 (centres unmarked) [Octocrylene, octocrylene, reference compound]",UVA PF,[1],1.20 ± 0.03
same,UVA/UVB Ratio,[1],0.12 ± 0.01
same,λc (critical wavelength),[1],327 nm
same,SPFin vitro,[1],2.87 ± 0.16
same,εmax,[2],13650 M⁻¹ cm⁻¹
same,λmax,[2],302 nm
same,Absorption Range,[2],290–349 nm
"Nc1c2ccccc2nc2ccccc12 [Compound 9-AAc, 9-aminoacridine, reference compound]","fold induction at 90 min, 15 µg/mL",in vitro,48
"COc1ccc(C(=O)CC(=O)c2ccc(C(C)(C)C)cc2)cc1 [Avobenzone, butyl methoxy-dibenzoylmethane, reference compound]",UVA PF,[1],7.56 ± 0.19
same,UVA/UVB Ratio,[1],2.49 ± 0.03
same,λc (critical wavelength),[1],381 nm
same,SPFin vitro,[1],2.23 ± 0.03
same,εmax,[2],36820 M⁻¹ cm⁻¹
same,λmax,[2],358 nm
same,Absorption Range,[2],290–393 nm
"CCCCC(CC)COC(=O)C=Cc1ccc(OC)cc1 (centres unmarked) [EHMC, ethylhexyl methoxycinnamate, reference compound]",UVA PF,[1],1.34 ± 0.05
same,UVA/UVB Ratio,[1],0.05 ± 0.01
same,λc (critical wavelength),[1],321 nm
same,SPFin vitro,[1],4.96 ± 0.33
same,εmax,[2],22990 M⁻¹ cm⁻¹
same,λmax,[2],309 nm
same,Absorption Range,[2],290–339 nm
same,decrease of AUC after irradiation,[3],36.7%
same,λmax pre-irradiation,[3],309
same,% of initial AUC post-irradiation,[3],63.26%
same,λmax post-irradiation,[3],307
same,% of Initial AUC,[4],78.45%
same,% of Initial SPFin vitro,[4],80.83%
same,% of Initial UVA PF,[4],88.76%
"COc1ccc(/C=C2\NC(=O)NC2=O)cc1OC [Compound 1e, (Z)-5-(3,4-Dimethoxybenzylidene)imidazolidine-2,4-dione]",εmax,[2],28440 M⁻¹ cm⁻¹
same,λmax,[2],341 nm
same,Absorption Range,[2],290–384 nm
same,λmax pre-irradiation,[3],341
same,% of initial AUC post-irradiation,[3],95.38%
same,λmax post-irradiation,[3],346
same,Probable Transformation,[7],O-dealkylation
same,half-life at 20 µM,"[7]; mouse, pH 7.4, mouse liver microsomes 0.8 mg/mL, 20 µM compound, NADPH-regenerating system, 37 °C, read-out: t ½",1.02 h
same,microsomal CLint at 20 µM,"[7]; mouse, pH 7.4, mouse liver microsomes, calculated from t1/2",14 µL/min/mg
"O=[N+]([O-])c1ccc2c(c1)Cc1ccccc1-2 [Compound 2-NF, 2-nitrofluorene, reference compound]","fold induction at 90 min, 2 µg/mL","[6]; S. typhimurium TA98 without S9 (–S9), TA98, –S9, 2 µg/mL",25.3
"NNc1ccn([C@@H]2O[C@H](CO)[C@@H](O)[C@H]2O)c(=O)n1 [Compound N4-ACT, N4-aminocytidine, reference compound]","fold induction at 90 min, 100 µg/mL",[8],40
